In patent US9096548B2, “Pyrazine amide compounds” (Boehringer Ingelheim International GmbH, priority 2013, dated 2015):

Molecular target: T1, ENaC (Epithelial Sodium Channel) (Mus musculus, UniProt Q61180+Q9WU38+Q9WU39)
T1 construct: Mouse kidney M−1 cells were cultivated in DMEM; endogenous in cells; host or cells: Mouse kidney M-1 cells, cultivated with dexamethasone on transwell filters
T1 sequence (Q61180 1-699): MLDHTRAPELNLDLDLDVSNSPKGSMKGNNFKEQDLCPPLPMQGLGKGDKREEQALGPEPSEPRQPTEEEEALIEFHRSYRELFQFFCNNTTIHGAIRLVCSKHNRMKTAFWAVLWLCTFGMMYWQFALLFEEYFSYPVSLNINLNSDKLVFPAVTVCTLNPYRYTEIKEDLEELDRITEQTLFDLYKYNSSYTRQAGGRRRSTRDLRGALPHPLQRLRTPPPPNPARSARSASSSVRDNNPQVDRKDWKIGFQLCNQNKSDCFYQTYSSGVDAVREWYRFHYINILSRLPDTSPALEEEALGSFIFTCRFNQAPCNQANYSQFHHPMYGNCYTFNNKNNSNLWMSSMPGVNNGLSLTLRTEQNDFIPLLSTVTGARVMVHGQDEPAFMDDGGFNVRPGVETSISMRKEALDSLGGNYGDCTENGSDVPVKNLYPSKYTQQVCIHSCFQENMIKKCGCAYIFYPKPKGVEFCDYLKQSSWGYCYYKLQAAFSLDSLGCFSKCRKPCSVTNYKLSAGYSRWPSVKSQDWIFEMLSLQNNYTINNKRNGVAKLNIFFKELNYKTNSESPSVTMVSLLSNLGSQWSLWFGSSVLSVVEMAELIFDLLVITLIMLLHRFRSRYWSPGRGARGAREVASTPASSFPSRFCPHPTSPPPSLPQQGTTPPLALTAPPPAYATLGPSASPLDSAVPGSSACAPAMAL
T1 sequence (Q9WU38 1-638): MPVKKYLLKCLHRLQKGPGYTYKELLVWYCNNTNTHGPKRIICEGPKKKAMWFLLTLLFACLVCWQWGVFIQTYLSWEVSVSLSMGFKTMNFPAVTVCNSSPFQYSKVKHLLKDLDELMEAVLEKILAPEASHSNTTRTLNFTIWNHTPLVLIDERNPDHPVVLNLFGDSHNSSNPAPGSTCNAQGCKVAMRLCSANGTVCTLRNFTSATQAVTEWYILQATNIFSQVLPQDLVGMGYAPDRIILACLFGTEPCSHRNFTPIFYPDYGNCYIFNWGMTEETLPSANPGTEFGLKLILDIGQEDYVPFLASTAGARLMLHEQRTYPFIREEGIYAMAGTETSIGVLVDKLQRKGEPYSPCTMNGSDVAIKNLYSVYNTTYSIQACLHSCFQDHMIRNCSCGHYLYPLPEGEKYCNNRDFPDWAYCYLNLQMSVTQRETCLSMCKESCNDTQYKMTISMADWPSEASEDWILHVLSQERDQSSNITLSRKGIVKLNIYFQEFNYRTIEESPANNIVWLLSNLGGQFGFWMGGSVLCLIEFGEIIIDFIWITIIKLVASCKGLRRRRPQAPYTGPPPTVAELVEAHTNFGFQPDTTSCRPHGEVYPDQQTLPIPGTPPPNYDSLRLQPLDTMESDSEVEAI
T1 sequence (Q9WU39 1-655): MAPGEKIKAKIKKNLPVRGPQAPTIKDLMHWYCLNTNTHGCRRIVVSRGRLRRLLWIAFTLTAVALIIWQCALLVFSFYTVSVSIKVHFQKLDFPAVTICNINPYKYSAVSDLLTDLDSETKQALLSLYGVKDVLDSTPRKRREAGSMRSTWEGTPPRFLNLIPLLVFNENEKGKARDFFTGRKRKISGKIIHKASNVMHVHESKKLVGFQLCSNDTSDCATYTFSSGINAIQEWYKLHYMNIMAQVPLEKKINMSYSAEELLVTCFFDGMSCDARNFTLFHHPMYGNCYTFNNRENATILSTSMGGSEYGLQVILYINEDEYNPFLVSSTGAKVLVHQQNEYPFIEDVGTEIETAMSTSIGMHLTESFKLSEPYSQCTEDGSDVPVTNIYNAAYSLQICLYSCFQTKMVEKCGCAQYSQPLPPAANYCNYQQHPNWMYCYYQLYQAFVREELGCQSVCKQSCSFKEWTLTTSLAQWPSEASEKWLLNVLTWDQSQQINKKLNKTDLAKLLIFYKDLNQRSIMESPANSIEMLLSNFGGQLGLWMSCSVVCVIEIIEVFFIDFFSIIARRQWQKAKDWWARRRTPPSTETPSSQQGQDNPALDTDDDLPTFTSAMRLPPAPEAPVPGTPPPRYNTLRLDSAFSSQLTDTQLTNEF
Assay: Ussing Chamber assay (short circuit current, amiloride sensitive I_SC)
Format: cell-based
Details: Ussing chamber, mouse kidney M-1 cells, short circuit current, compound added to the apical solution; read-out: IC50
Description: The IC50 values of the example compounds given above were determined in the Ussing Chamber assay.
Ussing Chamber: Mouse kidney M−1 cells were cultivated in DMEM containing 5% FCS and 5 μM dexamethasone for 10 to 12 days on polyester transwell filters. Filters were inserted into a teflon-coated well-plate which fit into the ussing chamber system. Prior to measurement the medium of M−1 cells was replaced with Caco-2 transport buffer (Invitrogen, Germany). During measurements, the Ussing chamber temperature was kept at 37° C. Short circuit currents (I_sc) were measured in the voltage-clamp mode with the software package Lab View for data acquisition and analysis. The transepithelial electrical resistance (TEER) was determined by the application of voltage steps of ±5 mV every 5 sec. Compounds were administered at a final concentration of 3 μM or at increasing concentrations (1-3-10 μM) to the apical solution. At the end of each experiment the amiloride sensitive I_SC was measured by adding 3 μM amiloride to the apical compartment. Results are expressed as inhibition in percent of the amiloride effect or as IC50.

SMILES	IC50
CC(O)CN(C)C(=O)COc1ccc(CCC[N+]2(CCCc3ccc(OCC(=O)N(C)CC(C)O)cc3)CCC[C@H](NC(=O)c3nc(Cl)c(N)nc3N)C2)cc1 (stereo partly shown) [Example 6.26]	70 nM
CN(CCC#N)C(=O)COc1ccc(CCC[N+]2(CCCc3ccc(OCC(=O)N(C)CCC#N)cc3)CCC[C@H](NC(=O)c3nc(Cl)c(N)nc3N)C2)cc1 [Example 6.29]	105 nM
Nc1nc(N)c(C(=O)N[C@H]2CCC[N+](CCCc3ccc(OCC(=O)N4CC[S+]([O-])CC4)cc3)(CCCc3ccc(OCC(=O)N4CC[S+]([O-])CC4)cc3)C2)nc1Cl [Example 6.30]	209 nM
CN(C)C(=O)CN(C)C(=O)COc1ccc(CCC[N+]2(CCCc3ccc(OCC(=O)N(C)CC(=O)N(C)C)cc3)CCC[C@H](NC(=O)c3nc(Cl)c(N)nc3N)C2)cc1 [Example 6.32]	232 nM
Nc1nc(N)c(C(=O)N[C@H]2CCC[N+](CCCc3ccc(OCC(=O)N4CCC(O)(CO)CC4)cc3)(CCCc3ccc(OCC(=O)N4CCC(O)(CO)CC4)cc3)C2)nc1Cl [Example 6.36]	67 nM
Nc1nc(N)c(C(=O)N[C@H]2CCC[N+](CCCc3ccc(OCC(=O)NCCO)cc3)(CCCc3ccc(OCC(=O)NCCO)cc3)C2)nc1Cl [Example 6.38]	45 nM
Nc1nc(N)c(C(=O)N[C@H]2CCC[N+](CCCc3ccc(OCC(=O)OCC4COCCN4)cc3)(CCCc3ccc(OCC(=O)OCC4COCCN4)cc3)C2)nc1Cl (stereo partly shown) [Example 6.42]	112 nM
CS(=O)(=O)CCCNC(=O)COc1ccc(CCC[N+]2(CCCc3ccc(OCC(=O)NCCCS(C)(=O)=O)cc3)CCC[C@H](NC(=O)c3nc(Cl)c(N)nc3N)C2)cc1 [Example 6.43]	64 nM
Nc1nc(N)c(C(=O)N[C@H]2CCC[N+](CCCc3ccc(OCC(=O)N4CCn5ccnc5C4)cc3)(CCCc3ccc(OCC(=O)N4CCn5ccnc5C4)cc3)C2)nc1Cl [Example 6.44]	88 nM
CN1CCC(NC(=O)COc2ccc(CCC[N+]3(CCCc4ccc(OCC(=O)NC5CCN(C)C5=O)cc4)CCC[C@H](NC(=O)c4nc(Cl)c(N)nc4N)C3)cc2)C1=O (stereo partly shown) [Example 6.46]	83 nM
CN(CCS(C)(=O)=O)C(=O)COc1ccc(CCC[N+]2(CCCc3ccc(OCC(=O)N(C)CCS(C)(=O)=O)cc3)CCC[C@H](NC(=O)c3nc(Cl)c(N)nc3N)C2)cc1 [Example 6.48]	85 nM
Nc1nc(N)c(C(=O)N[C@H]2CCC[N+](CCCc3ccc(OCC(=O)N4CCN(CCO)CC4)cc3)(CCCc3ccc(OCC(=O)N4CCN(CCO)CC4)cc3)C2)nc1Cl [Example 6.54]	98 nM
Nc1nc(N)c(C(=O)N[C@H]2CCC[N+](CCCc3ccc(OCC(=O)N4CCC(O)CC4)cc3)(CCCc3ccc(OCC(=O)N4CCC(O)CC4)cc3)C2)nc1Cl [Example 6.56]	92 nM

The remaining molecules from weak to strong by IC50, led by results:

IC50	SMILES
44 nM	COCCCN(C)C(=O)COc1ccc(CCC[N+]2(CCCc3ccc(OCC(=O)N(C)CCCOC)cc3)CCC[C@H](NC(=O)c3nc(Cl)c(N)nc3N)C2)cc1 [Example 6.34]
41 nM	CN(C)C(=O)CNC(=O)COc1ccc(CCC[N+]2(CCCc3ccc(OCC(=O)NCC(=O)N(C)C)cc3)CCC[C@H](NC(=O)c3nc(Cl)c(N)nc3N)C2)cc1 [Example 6.28]
39 nM	C[S+]([O-])CCNC(=O)COc1ccc(CCC[N+]2(CCCc3ccc(OCC(=O)NCC[S+](C)[O-])cc3)CCC[C@H](NC(=O)c3nc(Cl)c(N)nc3N)C2)cc1 (stereo partly shown) [Example 6.45]
39 nM	CN1CCN(C(=O)COc2ccc(CCC[N+]3(CCCc4ccc(OCC(=O)N5CCN(C)CC5)cc4)CCC[C@H](NC(=O)c4nc(Cl)c(N)nc4N)C3)cc2)CC1 [Example 6.53]
28 nM	CS(=O)(=O)CCNC(=O)COc1ccc(CCC[N+]2(CCCc3ccc(OCC(=O)NCCS(C)(=O)=O)cc3)CCC[C@H](NC(=O)c3nc(Cl)c(N)nc3N)C2)cc1 [Example 6.37]
27 nM	CO[C@H]1COC[C@@H]1NC(=O)COc1ccc(CCC[N+]2(CCCc3ccc(OCC(=O)N[C@H]4COC[C@@H]4OC)cc3)CCC[C@H](NC(=O)c3nc(Cl)c(N)nc3N)C2)cc1 [Example 6.49]
25 nM	Nc1nc(N)c(C(=O)N[C@H]2CCC[N+](CCCc3ccc(OCC(=O)NCCOCCO)cc3)(CCCc3ccc(OCC(=O)NCCOCCO)cc3)C2)nc1Cl [Example 6.55]
21 nM	Cn1ccnc1CNC(=O)COc1ccc(CCC[N+]2(CCCc3ccc(OCC(=O)NCc4nccn4C)cc3)CCC[C@H](NC(=O)c3nc(Cl)c(N)nc3N)C2)cc1 [Example 6.33]
21 nM	Cn1cnc(CNC(=O)COc2ccc(CCC[N+]3(CCCc4ccc(OCC(=O)NCc5cn(C)cn5)cc4)CCC[C@H](NC(=O)c4nc(Cl)c(N)nc4N)C3)cc2)c1 [Example 6.40]
18 nM	N#CCNC(=O)COc1ccc(CCC[N+]2(CCCc3ccc(OCC(=O)NCC#N)cc3)CCC[C@H](NC(=O)c3nc(Cl)c(N)nc3N)C2)cc1 [Example 6.31]
18 nM	Cn1cncc1CNC(=O)COc1ccc(CCC[N+]2(CCCc3ccc(OCC(=O)NCc4cncn4C)cc3)CCC[C@H](NC(=O)c3nc(Cl)c(N)nc3N)C2)cc1 [Example 6.41]
17 nM	CN(Cc1cccnc1)C(=O)COc1ccc(CCC[N+]2(CCCc3ccc(OCC(=O)N(C)Cc4cccnc4)cc3)CCC[C@H](NC(=O)c3nc(Cl)c(N)nc3N)C2)cc1 [Example 6.27]
16 nM	Nc1nc(N)c(C(=O)N[C@H]2CCC[N+](CCCc3ccc(OCC(=O)NCCN4CCCC4=O)cc3)(CCCc3ccc(OCC(=O)NCCN4CCCC4=O)cc3)C2)nc1Cl [Example 6.35]
11 nM	Nc1nc(N)c(C(=O)N[C@H]2CCC[N+](CCCc3ccc(OCC(=O)NC(CO)c4cccnc4)cc3)(CCCc3ccc(OCC(=O)NC(CO)c4cccnc4)cc3)C2)nc1Cl (stereo partly shown) [Example 6.39]
11 nM	CN1CCOC(CNC(=O)COc2ccc(CCC[N+]3(CCCc4ccc(OCC(=O)NCC5CN(C)CCO5)cc4)CCC[C@H](NC(=O)c4nc(Cl)c(N)nc4N)C3)cc2)C1 (stereo partly shown) [Example 6.47]
6 nM	Nc1nc(N)c(C(=O)N[C@H]2CCC[N+](CCCc3ccc(OCC(=O)NCCc4ccccn4)cc3)(CCCc3ccc(OCC(=O)NCCc4ccccn4)cc3)C2)nc1Cl [Example 6.50]
5 nM	Nc1nc(N)c(C(=O)N[C@H]2CCC[N+](CCCc3ccc(OCC(=O)NCCc4cccnc4)cc3)(CCCc3ccc(OCC(=O)NCCc4cccnc4)cc3)C2)nc1Cl [Example 6.51]
4 nM	Nc1nc(N)c(C(=O)N[C@H]2CCC[N+](CCCc3ccc(OCC(=O)NCCc4ccncc4)cc3)(CCCc3ccc(OCC(=O)NCCc4ccncc4)cc3)C2)nc1Cl [Example 6.52]
